Results published in US20150209315A1 (Cumberland Pharmaceuticals, priority 2009, published 2015).

Experiments:
[1] = test system: post-operative adult patients; assay: Example 2: treatment failures; type: in vivo, human; conditions: 800 mg; ITT
Description: Eligible patients were randomized to one of the two treatment groups. All patients were able (but were not required) to receive morphine until approximately 45 minutes before the end of the surgical procedure. After that time, only fentanyl was allowed until the end of the operation. The first dose of ibuprofen was administered at approximately the initiation of skin closure. […] Other than ibuprofen or placebo, only morphine was administered for pain. […] Additional morphine could be administered at the discretion of the treating physician if adequate pain control had still not been achieved. Patients given non-morphine analgesics were classified as treatment failures. Treatment failures were not replaced. A treatment failure was defined as a patient that required narcotic pain medication, other than morphine, or non-narcotic medications including the use of another NSAID through the treatment period. If other narcotics (other than morphine) or NSAIDS were started, CTM was discontinued.

[2] = test system: post-operative adult patients; assay: Example 1: patient self-assessment of pain, VAS at rest; type: in vivo, human; conditions: 400 mg
Description: Pain was measured by the patient's self-assessment using a Visual Analog Scale (VAS) from 0-10 with 0 being no pain and 10 being intense pain. This was measured both at rest and with movement. […] […] To account for the missing pain assessments, two missing value approaches as described in the statistical analysis plan were used to impute values. To determine the difference in overall pain at differing time-points, the area under the VAS pain curve during the first 24 hours, between 6 and 24 hours and between 12 and 24 hours were analyzed.

In the case of CC(C)Cc1ccc(C(C)C(=O)O)cc1 (centres unmarked) [Ibuprofen, 2-(4-isobutylphenyl) propionic acid], the “treatment failures, number of patients” value [1] is reported as 7, the “treatment failures, percent of patients” value [1] is reported as 4% and the “VAS Score measured at Rest (median)” value ([2]; EEP, 1-Hour) is reported as 7.0. The “VAS Score measured at Rest, % Reduction vs Placebo” value (shortened to “VAS Score … % Reduction vs Placebo”) ([2]; EEP, 1-Hour) was 0.0%, the “VAS Score measured at Rest (median)” value ([2]; EEP, 2-Hour) was 6.1 and the “VAS Score … % Reduction vs Placebo” value ([2]; EEP, 2-Hour) was −3.4%. The “VAS Score measured at Rest (median)” value ([2]; EEP, 3-Hour) was 5.0, the “VAS Score … % Reduction vs Placebo” value ([2]; EEP, 3-Hour) was 0.0% and the “VAS Score measured at Rest (median)” value ([2]; EEP, 6-Hour) was 4.0. For the same compound, the “VAS Score … % Reduction vs Placebo” value ([2]; EEP, 6-Hour) was 0.0%, the “VAS Score measured at Rest (median)” value ([2]; EEP, 9-Hour) was 3.0 and the “VAS Score measured at Rest (median)” value ([2]; EEP, 12-Hour) was 3.0. The “VAS Score … % Reduction vs Placebo” value ([2]; EEP, 12-Hour) was 0.0%, the “VAS Score measured at Rest (median)” value ([2]; EEP, 15-Hour) was 2.0 and the “VAS Score … % Reduction vs Placebo” value ([2]; EEP, 15-Hour) was 33.3%. For the same compound, the “VAS Score measured at Rest (median)” value ([2]; EEP, 18-Hour) was 2.9, the “VAS Score … % Reduction vs Placebo” value ([2]; EEP, 18-Hour) was 3.3% and the “VAS Score measured at Rest (median)” value ([2]; EEP, 21-Hour) was 2.9. The “VAS Score … % Reduction vs Placebo” value ([2]; EEP, 21-Hour) was 3.3%, the “VAS Score measured at Rest (median)” value ([2]; EEP, 24-Hour) was 3.0 and the “VAS Score … % Reduction vs Placebo” value ([2]; EEP, 24-Hour) was 0.0%. For the same compound, the “VAS Score measured at Rest (median)” value ([2]; EEP, 27-Hour) was 3.0, the “VAS Score … % Reduction vs Placebo” value ([2]; EEP, 27-Hour) was 3.2% and the “VAS Score measured at Rest (median)” value ([2]; EEP, 30-Hour) was 2.5. The “VAS Score … % Reduction vs Placebo” value ([2]; EEP, 30-Hour) was 10.7%, the “VAS Score measured at Rest (median)” value ([2]; EEP, 33-Hour) was 2.7 and the “VAS Score … % Reduction vs Placebo” value ([2]; EEP, 33-Hour) was 15.6%. For the same compound, the “VAS Score measured at Rest (median)” value ([2]; EEP, 36-Hour) was 2.4, the “VAS Score … % Reduction vs Placebo” value ([2]; EEP, 36-Hour) was 7.7% and the “VAS Score measured at Rest (median)” value ([2]; EEP, 39-Hour) was 2.1. For the same compound, the “VAS Score … % Reduction vs Placebo” value ([2]; EEP, 39-Hour) was −16.7%, the “VAS Score measured at Rest (median)” value ([2]; EEP, 42-Hour) was 2.1 and the “VAS Score … % Reduction vs Placebo” value ([2]; EEP, 42-Hour) was −5.0%. The “VAS Score measured at Rest (median)” value ([2]; EEP, 45-Hour) was 2.4, the “VAS Score … % Reduction vs Placebo” value ([2]; EEP, 45-Hour) was −14.3% and the “VAS Score measured at Rest (median)” value ([2]; EEP, 48-Hour) was 1.6. The “VAS Score … % Reduction vs Placebo” value ([2]; EEP, 48-Hour) was −6.7%, the “VAS Score measured at Rest (median)” value ([2]; ITT, 1-Hour) was 7.0 and the “VAS Score … % Reduction vs Placebo” value ([2]; ITT, 1-Hour) was 0.0%. The “VAS Score measured at Rest (median)” value ([2]; ITT, 2-Hour) was 6.3, the “VAS Score … % Reduction vs Placebo” value ([2]; ITT, 2-Hour) was −3.3% and the “VAS Score measured at Rest (median)” value ([2]; ITT, 3-Hour) was 5.1. For the same compound, the “VAS Score … % Reduction vs Placebo” value ([2]; ITT, 3-Hour) was −2.0%, the “VAS Score measured at Rest (median)” value ([2]; ITT, 6-Hour) was 4.3 and the “VAS Score … % Reduction vs Placebo” value ([2]; ITT, 6-Hour) was −7.5%. The “VAS Score measured at Rest (median)” value ([2]; ITT, 9-Hour) was 3.5, the “VAS Score … % Reduction vs Placebo” value ([2]; ITT, 9-Hour) was 12.5% and the “VAS Score measured at Rest (median)” value ([2]; ITT, 12-Hour) was 3.1. For the same compound, the “VAS Score … % Reduction vs Placebo” value ([2]; ITT, 12-Hour) was −3.3%, the “VAS Score measured at Rest (median)” value ([2]; ITT, 15-Hour) was 2.6 and the “VAS Score … % Reduction vs Placebo” value ([2]; ITT, 15-Hour) was 21.2%. The “VAS Score measured at Rest (median)” value ([2]; ITT, 18-Hour) was 2.9, the “VAS Score … % Reduction vs Placebo” value ([2]; ITT, 18-Hour) was 3.3% and the “VAS Score measured at Rest (median)” value ([2]; ITT, 21-Hour) was 2.8. For the same compound, the “VAS Score … % Reduction vs Placebo” value ([2]; ITT, 21-Hour) was 20.0%, the “VAS Score measured at Rest (median)” value ([2]; ITT, 24-Hour) was 3.0 and the “VAS Score … % Reduction vs Placebo” value ([2]; ITT, 24-Hour) was 0.0%. For the same compound, the “VAS Score measured at Rest (median)” value ([2]; ITT, 27-Hour) was 3.1, the “VAS Score … % Reduction vs Placebo” value ([2]; ITT, 27-Hour) was −3.3% and the “VAS Score measured at Rest (median)” value ([2]; ITT, 30-Hour) was 2.4. The “VAS Score … % Reduction vs Placebo” value ([2]; ITT, 30-Hour) was 11.1%, the “VAS Score measured at Rest (median)” value ([2]; ITT, 33-Hour) was 2.7 and the “VAS Score … % Reduction vs Placebo” value ([2]; ITT, 33-Hour) was 15.6%. For the same compound, the “VAS Score measured at Rest (median)” value ([2]; ITT, 36-Hour) was 2.3, the “VAS Score … % Reduction vs Placebo” value ([2]; ITT, 36-Hour) was 11.5% and the “VAS Score measured at Rest (median)” value ([2]; ITT, 39-Hour) was 2.1. The “VAS Score … % Reduction vs Placebo” value ([2]; ITT, 39-Hour) was −16.7%, the “VAS Score measured at Rest (median)” value ([2]; ITT, 42-Hour) was 2.1 and the “VAS Score … % Reduction vs Placebo” value ([2]; ITT, 42-Hour) was −5.0%. For the same compound, the “VAS Score measured at Rest (median)” value ([2]; ITT, 45-Hour) was 2.4 and the “VAS Score … % Reduction vs Placebo” value ([2]; ITT, 45-Hour) was −20.0%.
